Literature values as cited in patent US4826688A, “Controlled absorption pharmaceutical formulation” (501 Elan Corporation PLC., priority 1985, dated 1989).

In the case of `C=C[C@H]1C[N@@]2CC[C@H]1C[C@@H]2[C@@H](O)c1ccnc2ccc(OC)cc12` [Quinidine sulphate], the “absorption from the gastro-intestinal tract” value (in words) is listed as “rapidly absorbed” and the “peak plasma concentrations are reached” value (quinidine sulphate, usual) is listed as “about two”.
In the case of `C=C[C@H]1C[N@@]2CC[C@H]1C[C@@H]2[C@@H](O)c1ccnc2ccc(OC)cc12` [Quinidine, (+)-α-(6-methoxyquinolin-4-yl)-α-(5-vinylquinuclidin-2-yl)methanol], the “excretion in the urine” value (in words) is given as “almost entirely excreted in the urine”.
